Literature values in PMC6844301, “Antibacterial activity of a Tribolium castaneum defensin in an in vitro infection model of Streptococcus pneumoniae” (Virulence, 2019).

Test system: multi-resistant clinical isolate serotype 19A (AMR)
Conditions: strain description of the AMR isolate in methods; method or ref not given
Experimental: They were grown on sheep blood agar plates for 10 h and then transferred to Todd Hewitt Yeast (THY) medium (Carl Roth GmbH, Karlsruhe) at a density of 4 × 10^7 bacteria/ml (Ultraspec 10 Cell Densitometer, Amersham Biosciences). Upon reaching a density of 2 × 10^8 bacteria/ml, the bacterial suspension was diluted to 5 × 10^6 bacteria/ml. To esta ...

Going from `CO/N=C(\C(=O)N[C@@H]1C(=O)N2C(C(=O)O)=C(COC(C)=O)CS[C@H]12)c1csc(N)n1` [Cefotaxim] to `CCC[C@@H]1C[C@@H](C(=O)N[C@@H]([C@H]2O[C@H](SC)[C@H](O)[C@@H](O)[C@H]2O)[C@H](C)Cl)N(C)C1` [Clindamycin], the “resistant against (antibiotic concentration)” value rises from 4 µg/mL to 256 µg/mL (64-fold).

First: CN(C)[C@@H]1C(O)=C(C(N)=O)C(=O)[C@@]2(O)C(O)=C3C(=O)c4c(O)cccc4[C@@](C)(O)[C@H]3C[C@@H]12 [Tetracycline]
Second: Penicillin
The “resistant against (antibiotic concentration)” value of the first is 4-fold higher: 32 µg/mL for the first, 8 µg/mL for the second.
